Common to all, as to assay type: cell-based, human
The subject of experiment [1] is MCF7 cells. Put plainly: Mitochondrial outer membrane potential assay (MOMP). Particulars: MCF7, 10 mM, 24 hrs. How it is done:
(§1) One of the key hallmarks of apoptosis is the loss of mitochondrial membrane potential. To investigate that aspect we did a MOMP assay which validates our Cell-APOPercentage assay. This assay was tested on three cell lines MCF7, MDA-MB-231 & MRC-5. The top right and bottom hand quadrants of each plot represents healthy (FL2-A) and apoptotic (FL1-A) cells respectively (see FIGS. 13 to 15).
(§2) From the results obtained from MTT (IC50 values) and Cell-APOPercentage assays it was quite evident that ˜10 mM HPβCD caused cellular growth inhibition through apoptosis in cancer cells and had little or no effect in normal cells. Therefore, we selected just 10 mM HPβCD going forward as the only working concentration for HPβCD treatment. 24 hrs time point was selected (HPβCD & 10 mM H2O2) because mitochondrial membrane potential loss is an early cellular event.

The test system of experiment [2] is MDA-MB-231 cells. The description is as above. Particulars: MDA-MB-231, 10 mM, 24 hrs. The protocol: as §1, §2
The test system of experiment [3] is MCF7 cells. Description: ROS assay. Particulars: MCF7, 10 mM, 24 hrs. How it is done:
(§3) To further validate the occurrence of apoptosis and to investigate the exact mechanisms if apoptosis, a ROS assay was conducted to capture the production of ROS. […] In order to be in solidarity with this fact, a ROS assay was performed in three cell lines: MCF7, MDA-MB-231 & MRC-5. Like before, HPβCD and the positive (10 mM H2O2) were treated for 24 hrs. The right hand section in each plot represents the production of ROS.

For experiment [4], the system named is MDA-MB-231 cells. Put plainly: ROS assay. Particulars: MDA-MB-231, 10 mM, 24 hrs. The protocol: as §3
The subject of another experiment is MRC-5 cells. Description: ROS assay. Particulars: MRC-5, 10 mM, 24 hrs. How it is done: as §3
Experiment [5] has as its system MCF7 cells. Put plainly: MTT growth inhibition assay. Particulars: Homo sapiens, MCF7, 40 μM Plumbagin. How it is done: (§4) Cells were cultured in appropriate medium supplemented with 10% FCS, penicillin (100 U/ml), and streptomycin (100 μg/ml) (Gibco) at 5% CO2 in a 37° C. incubator.
(§5) Four different cell lines were used MCF7 (ER+). MDA-MB-231 (ER−), MRC-5 (Lung Fibroblasts) and HEK-293 (Embryonic kidney). MRC-5 and/or HEK-293 were used as control cell lines depending on availability.
(§6) In order to determine whether HPβCD has the ability to induce cancer cell death a primary screening using an MTT assay was performed. Three different time points 24 hrs.

The test system of experiment [6] is MDA-MB-231 cells. Put plainly: MTT growth inhibition assay. Particulars: Homo sapiens, MDA-MB-231, 40 μM Plumbagin. How it is done: as §4, §5, §6
For orientation: Tetrazolium dyes change colour on reduction, which living cells bring about.

The subject of experiment [7] is MCF7 cells. Put plainly: Cell-APOPercentage apoptosis assay. Particulars: MCF7, 10 μM Plumbagin, 24 hrs. How it is done:
(§7) APOPercentage assays gives a measure of overall apoptosis in the cell. Apoptosis is an early event and therefore just one time point (24 hrs) was selected and tested on four cell lines MCF7, MDA-MB-231, MRC-5 & HEK-293 cells. 10 μM Plumbagin was used a positive control as opposed to 40 μM from MTT because higher concentrations of plumbagin was way too toxic for the cells and to capture the early activity, optimal dosage was required. To confirm the growth inhibition obtained from the MTT assay was actually due to apoptosis, a Cell-APOPercentage Apoptosis assay was performed according to known methods.

In experiment [8] the test system is MDA-MB-231 cells. Put plainly: Cell-APOPercentage apoptosis assay. Particulars: MDA-MB-231, 10 μM Plumbagin, 24 hrs. How it is done:
as §7

For another experiment, the system named is HEK-293 cells. Description: Caspase 3/7 assay. Particulars: HEK-293, 40 μM Plumbagin, 24 hrs. The protocol: (§8) The final step in apoptosis following the intrinsic pathway is the activation of executioner caspases like caspase 3 and caspase 7 […]. Therefore, to confirm that cell death was due to the mitochondrial mediated pathway of apoptosis a Caspase 3/7 assay was conducted. Caspases are activated in response to a myriad of cellular death stimuli and they dismantle the cell. Caspase 3 and caspase 7 contribute to the majority of proteolytic cleavage occurring in apoptosis. As a final step to confirm and validate apoptosis via the mitochondrial intrinsic pathway, the Caspase 3/7 assay was conducted on three cell lines: MCF7, MDA-MB-231 & HEK-293. HPβCD and positive (40 μM PL) were treated for 24 hrs. The percentage of dead/apoptotic cells are clearly indicated in specific corners of each quadrants in the above plots.

Experiment [9] concerns MCF7 cells. Put plainly: Caspase 3/7 assay. Particulars: MCF7, 40 μM Plumbagin, 24 hrs. The protocol: as §8
Experiment [10] relates to MDA-MB-231 cells. Put plainly: Caspase 3/7 assay. Particulars: MDA-MB-231, 40 μM Plumbagin, 24 hrs. The protocol:
as §8

Molecules are shown by their SMILES.

This note sets out measurements from patent US20220096529A1, “2-HYDROXYPROPYL-BETA-CYCLODEXTRIN (HPBETACD) FOR USE IN THE TREATMENT OF BREAST CANCER” (UNIVERSITY OF THE WITWATERSRAND, JOHANNESBURG, priority 2019, published 2022).

`OO` [H2O2, reference compound]: in the experiment with MCF7 cells [1], the “apoptotic population (loss of mitochondrial membrane potential)” value is 92.1%. In the experiment on MDA-MB-231 cells [2], the “apoptotic cells / cell death (loss of mitochondrial membrane potential)” value is given as 92.4%. Further, the ROS generation in the experiment with MCF7 cells [3] came to 88.5%; in the experiment with MDA-MB-231 cells [4] it was 73%; in the experiment with MRC-5 cells, 64.1%.
A word on the inhibition: it is the change of the read-out against control, counted positive when it falls. Low values mean little suppression, high ones strong suppression. For the compound `CC1=CC(=O)c2c(O)cccc2C1=O` [Plumbagin, reference compound], the inhibition at 40 µM was ~80% with MCF7 cells [5] (24 hrs); ~90% in the experiment on MCF7 cells [5] (48 hrs); ~100% in the experiment on MCF7 cells [5] (72 hrs); ~85% in the experiment with MDA-MB-231 cells [6] (24 hrs); ~92% in the experiment with MDA-MB-231 cells [6] (48 hrs); ~95% in the experiment on MDA-MB-231 cells [6] (72 hrs). For the same compound, the apoptosis with MCF7 cells [7] and in the experiment with MDA-MB-231 cells [8] was ~90% each time. Also, the “Total Apoptotic (caspase 3/7)” value with HEK-293 cells worked out at 72.40%; with HEK-293 cells (listed as PL) it was 72.4%; with MCF7 cells [9], 23.55%; in the experiment on MDA-MB-231 cells [10] it was 80.45%.
